Measurements taken from publication PMC12830207, “Targeting the protein–protein interaction between the CDC37 cochaperone and client kinases by an allosteric RAF dimer breaker” (The Journal of Biological Chemistry, 2025).
One block for each molecule: values may come before it.

Experiments:
HSP90–CDC37 complex = conditions: cited from earlier work
Excerpt: Unlike conventional HSP90 inhibitors, braftide preserves HSP90 activity while disrupting CDC37–client interactions, minimizing cytotoxicity and enhancing therapeutic precision. Braftide's ability to destabilize RAF through CDC37 inhibition may offer an alternative to high-dose HSP90 inhibitors, mitigating their associated side effects. […] While most HSP90–CDC37 inhibitors focus on HSP90 ATP-competitive inhibition ([6]), emerging ...

ERK = conditions: cited from earlier work
Excerpt: The RAF kinase family, comprising ARAF, BRAF, and CRAF, is one of the well-studied clients of CDC37. RAF kinase is a core component of the mitogen-activated protein kinase (MAPK) (RAS–RAF–mitogen-activated protein kinase kinase [MEK]–extracellular signal–regulated kinase [ERK]) pathway, governing cell proliferation, survival, senescence, differentiation, and migration ([18]). […] While ATP-competitive inhibitors like vemurafenib, dabrafenib, and encorafenib ...

BRAF–CDC37 interaction = assay: NanoBiT luminescence CDC37–RAF interaction reporter assay, BRAF^SmBiT–CDC37^LgBiT; assay type: cell-based, human (HEK293); conditions: HEK293, 10 µM vemurafenib, 4 hrs, Fig. S8
Excerpt: NanoBiT cytomegalovirus MCS BiBiT vector, which contains a BRAF N terminal fused with LgBiT and CRAF N terminal fused with SmBiT, was purchased from Promega. CDC37 LgBiT and CRAF SmBiT was generated using the standard Gibson Assembly (NEB HiFi Assembly) using NanoBiT BiBiT as the vector and following primers: 5′ […] 3′, 5′ […] 3′, 5′ […] 3′, 5′ […] 3′, and CDC37 LgBiT and BRAF SmBiT was generated using the standard Gibson Assembly using NanoBiT BiBiT as the vector and following primers: 5′ […] 3′, 5′ […] 3′, 5′ […] 3′, 5′ […] 3′. Primers were designed to introduce H20A, N22A, I23A triple mutation within the CDC37 FLAG tag and for NanoBiT construct CDC37(HNI/A) LgBit and BRAF SmBiT. Primers were designed to introduce the desired substitutions. The forward primer sequence was 5′ gccgcc[…] 3′, and the reverse primer sequence was 5′ gggggc[…] 3′. Site-directed mutagenesis was carried out using the Q5 Site-Directed Mutagenesis Kit (NEB; E0554) following the manufacturer's protocol.
Twenty-four hours post-transfection, cells were trypsinized, pelleted, resuspended in OptiMEM + 4% fetal bovine serum, and reseeded onto a 96-well plate at 5(10)^4 cells per well and then incubated at 37 °C overnight. Cells were pretreated with 1 μM bortezomib for 5 h and then braftide for 4 h at 0 and 25 μM. After treatment, 10 μM furimazine substrate was added to each well, and luminescence readings were taken at 470 to 480 nm using a CLARIOstar plate reader. Statistical significance was determined through a paired t test where indicated, followed by Tukey's honest significant difference post hoc test with corresponding p values (∗p < 0.05, ∗∗p < 0.01, and ∗∗∗p < 0.001). All graph bars represent the mean ± SD with individual data points per biological replicate with corresponding p values.

[1] = tested on: MAPK proteins (BRAF, CRAF, MEK, pMEK, ERK, pERK); assay: Immunoblot of MAPK proteins in HCT116 cells; assay type: cell-based
Method: (§1) Western blot band densities were quantified with ImageJ software (National Institutes of Health) and normalized to the indicated loading control. Statistical significance was determined through one-/two-way ANOVA, where indicated, followed by Tukey's honest significant difference post hoc test with corresponding p values (∗p < 0.05, ∗∗p < 0.002, ∗∗∗p < 0.0002, and ∗∗∗∗p < 0.0001). All graph bars represent the mean ± SD with individual data points per biological replicate with corresponding p values.

HCT116 cells = assay: WST-1 cell viability assay, HCT116; assay type: cell-based; conditions: HCT116, no braftide, 24 h, WST-1; read-out: EC50 of 17-AAG alone, HCT116
Method: HCT116 and WM3629 cells were seeded onto polylysine-coated, clear-bottomed, 96-well plates at 15(10)^3 cells per well and allowed to incubate for 24 h. Cells were treated with braftide and 17-AAG mixtures at indicated concentrations for 24 h (37 °C). The WST-1 cell viability assay was carried out according to the manufacturer's protocols (Roche; 11644807001) for 4 h, and absorbance readings were taken at 450 nM in a CLARIOstar plate reader. For the dose–response curves of braftide and 17-AAG, the data were fit to the 4-parameter logistic equation (dose–response fitting equation) in GraphPad Prism (Dotmatics): y=A1+(A2−A1)÷(1+10^(LOGx0−x)p)
Error bars are indicative of the SEM of each point.

HSP90 [2] = conditions: cited from earlier work
Excerpt: However, this approach often requires high dosages, making cells more susceptible to thermal damage and inducing HSR1 expression ([10]). […] ATP competitive inhibitors for RAF kinase encou ...

CDC37 = assay: Photo-crosslinking and streptavidin pull-down, CDC37; assay type: binding, human (HEK293); conditions: 10 μM peptide, lysate of HEK293 with CDC37-FLAG/BRAF-V5, 4 h, 4 °C, UV 1 h, streptavidin
Method: (§2) Transfected HEK293 cells were treated with the indicated treatments and harvested in cold PBS. The cell pellets were lysed in modified RIPA buffer (50 mM Hepes [pH 7.4], 150 mM sodium chloride, 0.1% NP-40 [IGEPAL630], 1 mM EDTA, 5% glycerol, 1 mM PMSF, 20 mM β-glycerophosphate, 2.5 mM sodium pyrophosphate, and 1 protease inhibitor tablet) and incubated with rotation for 2 h, 4 °C. Cell lysates were then incubated with resin (FLAG-M2 magnetic, Sigma [M8823] or streptavidin, Pierce [88816]) for 2 h to bind the tagged BRAF–CRAF or BTN–braftide-crosslinked proteins. The samples were washed five times in a modified RIPA buffer and quenched in loading dye (BTN IP elution was supplemented with 20 mM biotin in loading dye) and heated at 95 °C, 5 min. Samples were analyzed via immunoblot.
(§3) HEK293 cells were cotransfected with CDC37 (FLAG-tagged) and BRAF (V5-tagged). Cells were harvested in cold PBS, and pellets were lysed in modified RIPA buffer with rotation for 2 h, 4 °C. Cell lysate (1 mg) was incubated with 0 or 10 μM BTN–braftide/JAK2, with rotation for 4 h, at 4 °C. Samples were then exposed to […] UV light for 1 h over ice. After UV treatment, samples were incubated with Pierce Streptavidin magnetic beads (catalog no.: 88816) for 17 h at 4 °C, to bind BTN–braftide. […] Samples were analyzed via immunoblot.

BRAF = assay: Photo-crosslinking and streptavidin pull-down, BRAF; assay type: binding, human (HEK293); conditions: 10 μM peptide, lysate of HEK293 with CDC37-FLAG/BRAF-V5, 4 h, 4 °C, UV 1 h, streptavidin
Method: as §2, §3

HSP90 [3] = assay: Photo-crosslinking and streptavidin pull-down, HSP90; assay type: binding, human (HEK293); conditions: 10 μM peptide, HEK293 lysate, 4 h, 4 °C, UV 1 h, streptavidin
Method: as §2, §3

MAPK proteins / pERK = assay: Immunoblot of protein degradation and pERK with control peptide in HEK293; assay type: cell-based, human (HEK293); conditions: HEK293 cotransfected with CDC37 and RAF (Fig. S2A)
Method: as §1

CRAF = assay: Photo-crosslinking and streptavidin pull-down, endogenous CRAF; assay type: binding, human (HEK293); conditions: 10 μM peptide, HEK293 lysate, 4 h, 4 °C, UV 1 h, streptavidin
Method: as §2, §3

AKT1 = assay: Photo-crosslinking and streptavidin pull-down, AKT1; assay type: binding, human (HEK293); conditions: 10 μM peptide, HEK293 lysate, 4 h, 4 °C, UV 1 h, streptavidin
Method: as §2, §3

[4] = target: HSP90 (endogenous, HEK293), P07900; assay: co-immunoprecipitation (IP: FLAG), immunoblot band quantification; conditions: chain shown with the change, representative blot

Molecule: CC1=C[C@H](C)C[C@H](C)[C@H](Cc2cnco2)OC(=O)/C(C)=C\[C@H](C)C[C@H](C)[C@H](Cc2cnco2)OC1=O [conglobatin A]
dissociation of HSP90–CDC37 complex (HSP90–CDC37 complex): allosterically dissociate the HSP90–CDC37 complex

Molecule: CC(C)(C)c1nc(-c2cccc(NS(=O)(=O)c3c(F)cccc3F)c2F)c(-c2ccnc(N)n2)s1 [dabrafenib]
paradoxical activation of downstream ERK (ERK): can lead to paradoxical activation of downstream ERK under certain conditions

Molecule: CCCS(=O)(=O)Nc1ccc(F)c(C(=O)c2c[nH]c3ncc(-c4ccc(Cl)cc4)cc23)c1F [Vemurafenib, reference compound]
NanoBiT BRAF–CDC37 interaction, vemurafenib (BRAF–CDC37 interaction): disrupted the interaction between BRAF and CDC37 in the NanoBiT assay | paradoxical activation of downstream ERK (ERK): can lead to paradoxical activation of downstream ERK under certain conditions

Molecule: COC(=O)N[C@@H](C)CNc1nccc(-c2cn(C(C)C)nc2-c2cc(Cl)cc(NS(C)(=O)=O)c2F)n1 [encorafenib]
paradoxical activation of downstream ERK (ERK): can lead to paradoxical activation of downstream ERK under certain conditions

Molecule: C=CCNC1=C2C[C@@H](C)C[C@H](OC)[C@H](O)[C@@H](C)/C=C(\C)[C@H](OC(N)=O)[C@@H](OC)/C=C\C=C(/C)C(=O)NC(=CC1=O)C2=O [17-AAG, 17-N-allylamino-17-demethoxygeldanamycin, reference compound]
CRAF degradation and MAPK signaling, combination ([1]; HCT116, 500 nM 17-AAG + 500 nM braftide, immunoblot, n = 3): significant degradation of CRAF kinase and downregulation of MAPK signaling | inhibition by monotherapy at 500 nM ([1]; HCT116, 500 nM single agent, immunoblot): Neither 17-AAG nor braftide monotherapy exhibited obvious inhibition | concentration at which CRAF kinase level is depleted, 17-AAG monotherapy ([1]; HCT116, 17-AAG alone, 16 h, immunoblot): 2 µM | EC50 (HCT116 cells): > 5 µM | cytotoxicity in clinical trials (HSP90 [2]): its clinical trials faced challenges because of high cytotoxicity

Molecule: GRKKRRQRRRPQ-miniPEG-SLQHDNIVKY [TAT–JAK2, negative control peptide derived from the αC helix–β4 loop of the JAK2 kinase, reference compound]
MAPK proteins with control peptide ([1]; HCT116, 4 h, Fig. S2A): MAPK proteins are unaffected by control peptide

Molecule: GRKKRRQRRRPQ-miniPEG-THHVNILLFM [R/H peptide]
protein degradation of BRAF, CRAF, MEK, and ERK ([1]; HCT116, braftide^R2H, 4 h, immunoblot): failed to induce protein degradation of BRAF, CRAF, MEK, and ERK | impact on MAPK signaling ([1]; HCT116, braftide^R2H, 4 h, pMEK and pERK immunoblot): had no impact on MAPK signaling in HCT116 cells

Molecule: Biotin-GRKKRRQRRRPQ-miniPEG-SxQHDNIVKY [BTN–JAK2, biotinylated control peptide derived from the αC helix–β4 loop of the JAK2 kinase, same TAT-miniPEG fragment, reference compound]
co-immunoprecipitation of CDC37 with biotinylated peptide (CDC37): did not coimmunoprecipitate BRAF, CDC37, or HSP90 under the same conditions | co-immunoprecipitation of BRAF with biotinylated peptide (BRAF): did not coimmunoprecipitate BRAF, CDC37, or HSP90 under the same conditions | co-immunoprecipitation of HSP90 with biotinylated peptide (HSP90 [3]): did not coimmunoprecipitate BRAF, CDC37, or HSP90 under the same conditions | protein degradation and pERK levels with control peptide (MAPK proteins / pERK): did not induce protein degradation or reduce pERK levels

Molecule: Biotin-GRKKRRQRRRPQ-miniPEG-TRHVNILxFM [BTN–braftide]
co-immunoprecipitation of CDC37 with biotinylated peptide (CDC37): coimmunoprecipitated CDC37, BRAF, and endogenous CRAF | co-immunoprecipitation of BRAF with biotinylated peptide (BRAF): coimmunoprecipitated CDC37, BRAF, and endogenous CRAF | co-immunoprecipitation of endogenous CRAF with biotinylated peptide (CRAF): coimmunoprecipitated CDC37, BRAF, and endogenous CRAF | co-immunoprecipitation of AKT1 with biotinylated peptide (AKT1): Neither AKT1 nor HSP90 was pulled down in this assay | co-immunoprecipitation of HSP90 with biotinylated peptide (HSP90 [3]): Neither AKT1 nor HSP90 was pulled down in this assay

Molecule: C[C@@H]1O[C@@H](O[C@H]2[C@H](OC(=O)[C@]34CCC(C)(C)C[C@H]3C3=CC[C@@H]5[C@@]6(C)C[C@H](O)[C@H](O[C@@H]7O[C@H](CO)[C@@H](O)[C@H](O)[C@H]7O)C(CO)(CO)[C@@H]6CC[C@@]5(C)[C@]3(C)C[C@H]4O)OC[C@H](O)[C@@H]2O)[C@H](O)[C@H](O)[C@H]1O[C@@H]1OC[C@@H](O)[C@H](O[C@@H]2OC[C@](O)(CO)[C@H]2O)[C@H]1O [platycodin D]
dissociation of HSP90–CDC37 complex (HSP90–CDC37 complex): allosterically dissociate the HSP90–CDC37 complex

ratio to parent ([4]; HEK293 cells coexpressing BRAF-V5): 1.01 | ratio to parent ([4]; HEK293 cells coexpressing CRAF-HA): 0.91
B1: CDC37-myc-FLAG, Q16543 H20A; N22A; I23A (protein)
chain: MVDYSVWDHIEVSDDEDETAPAADTASLFRWRHQARVERMEQFQKEKEELDRGCRECKRKVAECQRKLKELEVAEGGKAELERLQAEAQQLRKEERSWEQKLEEMRKKEKSMPWNVDTLSKDGFSKSMVNTKPEKTEEDSEEVREQKHKTFVEKYEKQIKHFGMLRRWDDSQKYLSDNVHLVCEETANYLVIWCIDLEVEEKCALMEQVAHQTIVMQFILELAKSLKVDPRACFRQFFTKIKTADRQYMEGFNDELEAFKERVRGRAKLRIEKAMKEYEEEERKKRLGPGGLDPVEVYESLPEELQKCFDVKDVQMLQDAISKMDPTDAKYHMQRCIDSGLWVPNSKASEAKEGEEAGPGDPLLEAVPKTGDEKDVSV
